Reference: PMC6838339, “Discovery of Novel Multi-target Inhibitor of angiotensin type 1 receptor and neprilysin inhibitors from Traditional Chinese Medicine” (Scientific Reports, 2019)

Molecular target: T1, Angiotensin II type-1 receptor (AT1) (Homo sapiens, UniProt P30556)
T1 construct: gene AGTR1
T1 sequence (P30556 1-359): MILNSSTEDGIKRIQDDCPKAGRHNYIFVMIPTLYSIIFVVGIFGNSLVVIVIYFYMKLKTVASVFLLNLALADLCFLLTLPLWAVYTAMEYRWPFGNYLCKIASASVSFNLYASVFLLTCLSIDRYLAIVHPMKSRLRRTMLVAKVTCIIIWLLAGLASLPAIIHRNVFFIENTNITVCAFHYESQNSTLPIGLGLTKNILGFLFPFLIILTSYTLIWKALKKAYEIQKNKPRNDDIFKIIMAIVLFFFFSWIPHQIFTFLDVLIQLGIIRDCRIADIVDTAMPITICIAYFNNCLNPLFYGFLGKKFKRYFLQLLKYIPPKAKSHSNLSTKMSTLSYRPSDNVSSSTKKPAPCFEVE
Assay: FLIPR calcium influx assay in HEK293/Ga15/AT1 cells, angiotensin II stimulated
Type: cell-based

## Cc1cc(OC(=O)c2c(C)cc(OC(=O)c3c(C)cc(O)cc3O)cc2O)cc(O)c1C(=O)O [gyrophoric acid]
  IC50: 29.8 µM
